Experimental data taken from paper PMC7430049 (Journal of medicinal chemistry, 2019).
Blank lines part the entries; values can stand above or below the compound they belong to.

Key:
GLP over G9a = details: biochemical assays; cited from earlier work
human recombinant G9a [1] = target: T1, human recombinant G9a (Homo sapiens, UniProt Q96KQ7); assay: G9a inhibition, peptide-based AlphaLISA assay; format: biochemical; details: for Hill slope of the concentration–response inhibition curve of G9a: AlphaLISA, four-parameter fit; for fold reduction of G9a inhibitory activity compared to 12a: relative to 12a, from Table 1 IC50
T1 sequence (Q96KQ7 1-1210): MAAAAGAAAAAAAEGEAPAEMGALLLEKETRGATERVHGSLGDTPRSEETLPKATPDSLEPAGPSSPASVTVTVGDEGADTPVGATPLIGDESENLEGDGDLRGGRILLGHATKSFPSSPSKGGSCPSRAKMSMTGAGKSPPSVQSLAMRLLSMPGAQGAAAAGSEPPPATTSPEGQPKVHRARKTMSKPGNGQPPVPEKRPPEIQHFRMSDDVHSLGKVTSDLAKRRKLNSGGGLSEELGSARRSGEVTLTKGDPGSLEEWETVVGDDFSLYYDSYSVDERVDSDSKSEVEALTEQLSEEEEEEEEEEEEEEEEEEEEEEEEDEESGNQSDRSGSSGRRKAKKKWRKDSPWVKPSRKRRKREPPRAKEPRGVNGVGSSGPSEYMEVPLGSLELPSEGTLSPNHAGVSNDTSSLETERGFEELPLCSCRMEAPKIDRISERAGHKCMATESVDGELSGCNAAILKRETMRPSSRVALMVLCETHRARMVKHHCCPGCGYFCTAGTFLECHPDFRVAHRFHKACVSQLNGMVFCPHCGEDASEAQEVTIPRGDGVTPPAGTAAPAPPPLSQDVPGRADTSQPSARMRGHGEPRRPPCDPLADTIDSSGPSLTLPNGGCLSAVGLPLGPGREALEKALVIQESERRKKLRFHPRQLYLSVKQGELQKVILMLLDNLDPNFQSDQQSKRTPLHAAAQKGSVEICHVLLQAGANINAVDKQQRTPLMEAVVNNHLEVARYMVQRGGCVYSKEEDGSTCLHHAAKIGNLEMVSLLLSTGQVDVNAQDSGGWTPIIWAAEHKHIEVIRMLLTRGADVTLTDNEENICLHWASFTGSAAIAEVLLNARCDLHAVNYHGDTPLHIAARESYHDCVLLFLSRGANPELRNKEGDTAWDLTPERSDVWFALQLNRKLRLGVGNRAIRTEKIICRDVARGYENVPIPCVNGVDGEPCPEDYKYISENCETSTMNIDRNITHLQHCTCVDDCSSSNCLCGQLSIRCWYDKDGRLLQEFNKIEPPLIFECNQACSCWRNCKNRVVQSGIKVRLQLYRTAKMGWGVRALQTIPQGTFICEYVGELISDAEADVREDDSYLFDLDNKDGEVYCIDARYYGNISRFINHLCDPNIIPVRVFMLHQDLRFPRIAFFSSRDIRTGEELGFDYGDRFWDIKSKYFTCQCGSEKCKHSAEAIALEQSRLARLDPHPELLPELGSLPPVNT

U-343 cells = assay: MTT cell viability assay, U-343; format: cell-based, human; details: up to 5 μM, even after 72 h, vs vehicle
human recombinant p300 = human recombinant p300 (Homo sapiens, UniProt Q09472); assay: KAT3B/p300 inhibition, AlphaLISA assay; format: biochemical; details: tested at 10 and 25 μM
human recombinant G9a [2] = target: T1, human recombinant G9a; assay: Mechanism of action kinetics, AlphaLISA G9a assay, Lineweaver-Burk plots; format: biochemical; details: fixed H3 peptide 100 nM, varying SAM
MCF-7 cells = assay: MTT cell viability assay, MCF-7; format: cell-based, human; details: 0.05–50 μM; 24, 48, 72 h
[3] = tested on: H3K9me2 levels in U-343 cells; assay: Western blot of H3K9me2 in histone extracts, U-343; format: cell-based, human; details: 0.5 and 5 μM, 48 and 72 h
[4] = target: full-length human recombinant DNMT3b (Homo sapiens, UniProt Q9UBC3); assay: HotSpot DNMT activity assay; format: biochemical; details: lambda DNA substrate
MDA-MB-231 cells = assay: MTT cell viability assay, MDA-MB-231; format: cell-based, human; details: up to 5 μM, even after 72 h, vs vehicle
human recombinant KDM4A = target: T2, human recombinant KDM4A (Homo sapiens, UniProt O75164); assay: KDM4A/JMJD2A inhibition, AlphaLISA assay; format: biochemical; details: tested at 10 and 25 μM
T2 sequence (O75164 1-1064): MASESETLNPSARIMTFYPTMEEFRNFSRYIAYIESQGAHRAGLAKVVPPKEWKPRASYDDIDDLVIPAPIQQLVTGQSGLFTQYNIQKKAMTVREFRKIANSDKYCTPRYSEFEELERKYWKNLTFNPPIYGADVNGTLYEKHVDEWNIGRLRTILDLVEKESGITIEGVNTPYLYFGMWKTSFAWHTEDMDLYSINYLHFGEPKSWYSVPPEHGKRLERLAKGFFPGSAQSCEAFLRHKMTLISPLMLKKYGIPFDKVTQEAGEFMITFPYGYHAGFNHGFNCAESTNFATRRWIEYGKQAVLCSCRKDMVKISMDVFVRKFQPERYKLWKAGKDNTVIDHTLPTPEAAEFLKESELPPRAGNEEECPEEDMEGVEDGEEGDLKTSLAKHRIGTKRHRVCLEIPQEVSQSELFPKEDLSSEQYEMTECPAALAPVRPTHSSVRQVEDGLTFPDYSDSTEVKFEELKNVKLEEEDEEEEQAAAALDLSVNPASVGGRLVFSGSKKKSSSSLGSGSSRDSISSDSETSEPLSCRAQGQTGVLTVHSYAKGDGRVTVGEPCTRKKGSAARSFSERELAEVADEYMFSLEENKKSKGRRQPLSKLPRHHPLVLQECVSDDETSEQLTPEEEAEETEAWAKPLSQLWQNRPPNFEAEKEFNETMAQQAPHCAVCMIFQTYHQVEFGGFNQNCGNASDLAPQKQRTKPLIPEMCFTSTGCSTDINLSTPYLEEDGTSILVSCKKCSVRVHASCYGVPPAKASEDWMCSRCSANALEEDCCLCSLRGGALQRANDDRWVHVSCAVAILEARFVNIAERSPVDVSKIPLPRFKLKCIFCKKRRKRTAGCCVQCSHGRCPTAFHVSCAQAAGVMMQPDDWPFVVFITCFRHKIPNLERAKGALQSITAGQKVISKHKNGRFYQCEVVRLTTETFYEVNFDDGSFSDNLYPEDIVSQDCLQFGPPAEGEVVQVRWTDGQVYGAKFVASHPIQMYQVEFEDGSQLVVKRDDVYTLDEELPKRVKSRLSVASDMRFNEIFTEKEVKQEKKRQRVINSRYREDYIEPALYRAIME

human recombinant PRMT1 = human recombinant PRMT1 (Homo sapiens, UniProt Q99873); assay: PRMT1 inhibition, AlphaLISA assay; format: biochemical; details: tested at 10 and 25 μM
[5] = Chemical stability in PBS, HPLC analysis; format: physicochemical; details: exposure to PBS over 72 h
G9a [6] = target: T3, G9a (Homo sapiens, UniProt Q96KQ7); assay: Surface plasmon resonance; format: binding
T3 sequence (Q96KQ7 913-1193 limits assumed): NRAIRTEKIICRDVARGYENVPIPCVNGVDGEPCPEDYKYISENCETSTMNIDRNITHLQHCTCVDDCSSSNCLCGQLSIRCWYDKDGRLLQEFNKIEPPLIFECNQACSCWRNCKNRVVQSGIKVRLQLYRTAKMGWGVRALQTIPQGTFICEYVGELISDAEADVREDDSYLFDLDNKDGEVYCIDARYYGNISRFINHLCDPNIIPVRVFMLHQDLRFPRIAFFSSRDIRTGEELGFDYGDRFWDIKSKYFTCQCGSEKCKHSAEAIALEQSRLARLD

[7] = tested on: H3K9me2 levels in MDA-MB-231 cells; assay: Western blot of H3K9me2 in histone extracts, MDA-MB-231; format: cell-based, human; details: 0.5 and 5 μM, 48 and 72 h
human recombinant PRMT3 = human recombinant PRMT3 (Homo sapiens, UniProt O60678); assay: PRMT3 inhibition, AlphaLISA assay; format: biochemical; details: tested at 10 and 25 μM
[8] = tested on: H3K9me2 levels in MCF-7 cells; assay: Western blot of H3K9me2 in histone extracts, MCF-7; format: cell-based, human; details: 0.5 and 5 μM, 48 and 72 h
human DNMT3a = human DNMT3a (Homo sapiens, UniProt Q9Y6K1); assay: HotSpot DNMT activity assay; format: biochemical; details: lambda DNA substrate
[9] = tested on: protein arginine methyltransferase 1 (PRMT1); details: up to a 10 μM concentration; cited from earlier work
[10] = tested on: lysine N-methyltransferase SUV39H1(H320R); details: up to a 10 μM concentration; cited from earlier work
in vitro = details: PAMPA, pH 7.4
[11] = Parallel artificial membrane permeability assay; format: in vitro ADME; details: PAMPA, pH 7.4
[12] = tested on: other lysine and arginine methyltransferases; details: up to a 10 μM concentration; cited from earlier work
G9a [13] = target: T3, G9a; details: read-out: G9a IC50 (ECSD assay); ECSD assays; cited from earlier work
G9a [14] = target: T3, G9a; details: read-out: Morrison Ki, G9a; cited from earlier work

Sequence of human DNMT3a (Q9Y6K1 2-912 limits assumed): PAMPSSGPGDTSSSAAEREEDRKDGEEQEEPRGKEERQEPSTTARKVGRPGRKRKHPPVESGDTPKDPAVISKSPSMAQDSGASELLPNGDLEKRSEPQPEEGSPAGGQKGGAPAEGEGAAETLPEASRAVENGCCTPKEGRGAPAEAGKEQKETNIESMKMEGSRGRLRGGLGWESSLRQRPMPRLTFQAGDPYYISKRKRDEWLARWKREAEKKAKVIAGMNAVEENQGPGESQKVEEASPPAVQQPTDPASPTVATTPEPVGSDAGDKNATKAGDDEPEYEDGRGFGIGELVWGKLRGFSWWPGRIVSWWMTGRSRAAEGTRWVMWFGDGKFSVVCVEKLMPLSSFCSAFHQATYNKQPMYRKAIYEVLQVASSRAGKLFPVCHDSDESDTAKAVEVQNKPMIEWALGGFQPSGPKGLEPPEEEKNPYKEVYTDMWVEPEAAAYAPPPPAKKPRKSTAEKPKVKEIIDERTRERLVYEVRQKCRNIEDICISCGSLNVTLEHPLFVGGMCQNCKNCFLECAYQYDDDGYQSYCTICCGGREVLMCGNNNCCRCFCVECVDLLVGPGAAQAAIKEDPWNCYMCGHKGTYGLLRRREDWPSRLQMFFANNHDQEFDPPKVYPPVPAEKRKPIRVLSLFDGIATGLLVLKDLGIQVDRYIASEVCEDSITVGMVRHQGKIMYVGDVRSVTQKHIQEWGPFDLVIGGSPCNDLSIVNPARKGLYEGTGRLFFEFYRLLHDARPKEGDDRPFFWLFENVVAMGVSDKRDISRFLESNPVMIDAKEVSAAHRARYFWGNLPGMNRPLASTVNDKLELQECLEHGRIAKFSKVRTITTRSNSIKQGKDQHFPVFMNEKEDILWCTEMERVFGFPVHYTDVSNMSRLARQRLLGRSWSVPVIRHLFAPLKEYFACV
Sequence of human recombinant PRMT3 (O60678 whole entry): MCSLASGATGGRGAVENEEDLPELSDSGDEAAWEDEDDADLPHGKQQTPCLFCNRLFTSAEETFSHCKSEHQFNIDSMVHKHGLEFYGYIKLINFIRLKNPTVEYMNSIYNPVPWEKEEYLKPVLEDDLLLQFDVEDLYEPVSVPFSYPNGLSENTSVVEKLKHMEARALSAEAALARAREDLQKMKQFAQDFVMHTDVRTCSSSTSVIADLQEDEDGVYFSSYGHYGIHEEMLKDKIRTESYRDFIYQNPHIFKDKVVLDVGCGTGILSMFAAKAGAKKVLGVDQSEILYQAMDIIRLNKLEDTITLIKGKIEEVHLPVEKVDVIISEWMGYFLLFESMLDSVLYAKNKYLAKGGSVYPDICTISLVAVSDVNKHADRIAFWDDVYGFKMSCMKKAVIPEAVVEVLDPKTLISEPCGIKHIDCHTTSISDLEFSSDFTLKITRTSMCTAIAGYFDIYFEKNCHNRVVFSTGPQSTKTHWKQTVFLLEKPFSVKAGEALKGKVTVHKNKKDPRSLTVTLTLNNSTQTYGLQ
Sequence of human recombinant p300 (Q09472 whole entry): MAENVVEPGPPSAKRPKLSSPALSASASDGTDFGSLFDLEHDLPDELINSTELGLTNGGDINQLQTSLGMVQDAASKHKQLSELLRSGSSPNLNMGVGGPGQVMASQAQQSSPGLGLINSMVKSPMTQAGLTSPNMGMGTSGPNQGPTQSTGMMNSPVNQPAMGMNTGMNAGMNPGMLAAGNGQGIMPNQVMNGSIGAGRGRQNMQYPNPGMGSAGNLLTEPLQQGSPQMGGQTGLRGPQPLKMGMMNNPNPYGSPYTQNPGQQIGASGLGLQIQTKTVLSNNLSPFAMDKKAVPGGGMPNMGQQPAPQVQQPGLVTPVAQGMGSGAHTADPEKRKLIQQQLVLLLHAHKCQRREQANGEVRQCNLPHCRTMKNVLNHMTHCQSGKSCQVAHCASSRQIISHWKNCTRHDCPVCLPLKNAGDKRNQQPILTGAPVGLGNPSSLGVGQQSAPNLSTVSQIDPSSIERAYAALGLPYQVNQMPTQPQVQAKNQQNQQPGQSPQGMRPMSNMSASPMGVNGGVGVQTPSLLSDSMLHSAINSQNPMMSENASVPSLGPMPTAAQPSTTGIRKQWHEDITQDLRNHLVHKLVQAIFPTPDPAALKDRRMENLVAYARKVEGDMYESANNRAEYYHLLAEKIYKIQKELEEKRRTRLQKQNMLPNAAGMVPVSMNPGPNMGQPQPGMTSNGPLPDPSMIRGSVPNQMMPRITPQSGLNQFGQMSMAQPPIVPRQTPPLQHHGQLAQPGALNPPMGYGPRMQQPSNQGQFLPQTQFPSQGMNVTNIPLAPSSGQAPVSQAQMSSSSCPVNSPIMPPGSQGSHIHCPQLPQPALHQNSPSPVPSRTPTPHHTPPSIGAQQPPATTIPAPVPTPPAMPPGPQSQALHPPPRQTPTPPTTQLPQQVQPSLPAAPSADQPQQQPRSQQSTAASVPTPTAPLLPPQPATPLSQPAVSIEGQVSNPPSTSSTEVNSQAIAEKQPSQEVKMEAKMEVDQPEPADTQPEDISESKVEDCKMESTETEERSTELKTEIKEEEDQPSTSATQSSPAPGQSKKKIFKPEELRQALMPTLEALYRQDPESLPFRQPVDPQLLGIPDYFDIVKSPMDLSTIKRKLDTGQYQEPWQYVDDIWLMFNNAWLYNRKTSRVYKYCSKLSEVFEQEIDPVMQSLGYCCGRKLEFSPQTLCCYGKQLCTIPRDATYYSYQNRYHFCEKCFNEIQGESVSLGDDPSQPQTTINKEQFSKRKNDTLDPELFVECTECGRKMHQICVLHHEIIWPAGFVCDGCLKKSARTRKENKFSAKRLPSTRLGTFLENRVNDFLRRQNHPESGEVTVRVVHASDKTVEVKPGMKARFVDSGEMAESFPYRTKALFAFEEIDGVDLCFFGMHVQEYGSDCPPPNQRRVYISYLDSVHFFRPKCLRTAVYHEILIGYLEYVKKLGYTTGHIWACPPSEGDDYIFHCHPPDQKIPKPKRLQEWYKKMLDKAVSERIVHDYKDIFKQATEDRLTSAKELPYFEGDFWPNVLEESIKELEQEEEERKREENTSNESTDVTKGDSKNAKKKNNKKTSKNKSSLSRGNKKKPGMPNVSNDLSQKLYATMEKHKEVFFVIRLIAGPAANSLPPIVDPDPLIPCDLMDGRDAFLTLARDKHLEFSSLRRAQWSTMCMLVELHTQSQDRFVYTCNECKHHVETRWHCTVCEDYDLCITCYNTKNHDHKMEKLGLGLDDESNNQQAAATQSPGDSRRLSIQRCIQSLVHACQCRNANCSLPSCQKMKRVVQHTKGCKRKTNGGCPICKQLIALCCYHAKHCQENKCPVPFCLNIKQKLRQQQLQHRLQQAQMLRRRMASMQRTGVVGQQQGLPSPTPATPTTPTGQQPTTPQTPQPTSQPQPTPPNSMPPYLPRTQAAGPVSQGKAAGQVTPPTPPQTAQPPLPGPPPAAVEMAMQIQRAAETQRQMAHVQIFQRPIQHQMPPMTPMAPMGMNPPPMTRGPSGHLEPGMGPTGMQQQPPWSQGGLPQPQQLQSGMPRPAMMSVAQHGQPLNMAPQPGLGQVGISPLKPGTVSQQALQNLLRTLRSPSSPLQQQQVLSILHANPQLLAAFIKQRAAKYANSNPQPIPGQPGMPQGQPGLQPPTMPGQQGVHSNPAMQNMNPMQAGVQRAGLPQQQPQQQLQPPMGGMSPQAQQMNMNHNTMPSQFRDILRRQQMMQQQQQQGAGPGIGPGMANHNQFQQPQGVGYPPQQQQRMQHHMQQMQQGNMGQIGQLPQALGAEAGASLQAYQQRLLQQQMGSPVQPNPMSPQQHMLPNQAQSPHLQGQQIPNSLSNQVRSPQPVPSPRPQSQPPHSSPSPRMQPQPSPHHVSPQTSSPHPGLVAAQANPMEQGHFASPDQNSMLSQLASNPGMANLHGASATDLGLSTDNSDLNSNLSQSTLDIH
Sequence of human recombinant PRMT1 (Q99873 whole entry): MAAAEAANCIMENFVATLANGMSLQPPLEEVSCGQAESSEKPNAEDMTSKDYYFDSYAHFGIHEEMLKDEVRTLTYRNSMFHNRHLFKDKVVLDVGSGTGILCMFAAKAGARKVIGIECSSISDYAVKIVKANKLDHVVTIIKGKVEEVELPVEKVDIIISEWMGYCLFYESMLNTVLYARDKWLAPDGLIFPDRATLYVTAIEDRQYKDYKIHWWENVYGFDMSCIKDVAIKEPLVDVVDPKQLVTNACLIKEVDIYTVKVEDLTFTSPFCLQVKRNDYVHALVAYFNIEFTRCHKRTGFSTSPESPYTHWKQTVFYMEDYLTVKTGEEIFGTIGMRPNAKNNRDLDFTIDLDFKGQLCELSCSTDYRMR

Compound: CCCCCCNc1nc(NC2CCN(C)CC2)c2cc(OC)c(OC)cc2n1 [compound 9]
selectivity for GLP over G9a (GLP over G9a): > 140 fold

Compound: COc1cc2nc(N3CCCN(C)CC3)nc(NC3CCN(Cc4ccccc4)CC3)c2cc1OC [compound 3]
activity against PRMT1 [9]: basically inactive
activity against SUV39H1(H320R) [10]: basically inactive

Compound: COc1cc2c(NC3CCN(C(C)C)CC3)nc(C3CCCCC3)nc2cc1OCCCN1CCCC1 [compound 7]
Papp at 24 h, 0.2 mM (in vitro): 0.019 ×10⁻⁶ cm/s
Hill slope of the concentration–response inhibition curve of G9a (human recombinant G9a [1]): −1.3
Papp at 24 h, 0.2 mM [11]: 0.049 ×10⁻⁶ cm/s
activity against other lysine and arginine methyltransferases [12]: inactive

Compound: COc1cc2c(cc1OCCCN1CCCC1)N=C(C1CCCCC1)CC(NC1CCN(C(C)C)CC1)=N2 [compound 14, 4-Cyclohexyl-N-(1-isopropylpiperidin-4-yl)-8-methoxy-7-(3-(pyrrolidin-1-yl)propoxy)-3H-benzo[b][1,4]diazepin-2-amine]
fold reduction of G9a inhibitory activity compared to 12a (human recombinant G9a [1]): 130 fold

Compound: COc1cc2c(NC3CCN(C)CC3)nc(N3CCCN(C)CC3)nc2cc1OCCOCCN(C)C [compound 5]
IC50 (G9a [13]): 9 nM
Ki (G9a [14]): 0.063 nM

Now from value to compound, other results behind:

Hill slope of the concentration–response inhibition curve of G9a (human recombinant G9a [1]): −2.7
p300 inhibition (in words) (human recombinant p300): only poorly (or not at all) inhibited
α Ki, noncompetitive against SAM (human recombinant G9a [2]): 1.1 ± 0.2 nM
DNMT3b inhibition (in words) [4]: inactive
JMJD2A inhibition (in words) (human recombinant KDM4A): only poorly (or not at all) inhibited
PRMT1 inhibition (in words) (human recombinant PRMT1): only poorly (or not at all) inhibited
chemical stability (HPLC) [5]: did not decompose
Kd (G9a [6]): 63.8 ± 0.95 µM
PRMT3 inhibition (in words) (human recombinant PRMT3): only poorly (or not at all) inhibited
DNMT3a inhibition (in words) (human DNMT3a): inactive
Compound: COc1cc2c(cc1OCCCN1CCCC1)N=C(C1CCCCC1)CN=C2NC1CCN(C(C)C)CC1 [12a, 2-Cyclohexyl-N-(1-isopropylpiperidin-4-yl)-7-methoxy-8-(3-(pyrrolidin-1-yl)propoxy)-3H-benzo[e][1,4]diazepin-5-amine]
cell toxicity (MTT), U-343 (U-343 cells): did not significantly reduce the number of metabolically active MDA-MB-231 or U-343 cells
cell toxicity (MTT), MCF-7 (MCF-7 cells): slight progressive increase of toxicity after 48 and 72 h
dimethylation of lysine H3K9 (H3K9me2), U-343 [3]: marked and both concentration- and time-dependent reduction
cell toxicity (MTT), MDA-MB-231 (MDA-MB-231 cells): did not significantly reduce the number of metabolically active MDA-MB-231 or U-343 cells
dimethylation of lysine H3K9 (H3K9me2), MDA-MB-231 [7]: marked and both concentration- and time-dependent reduction
dimethylation of lysine H3K9 (H3K9me2), MCF-7 [8]: marked and both concentration- and time-dependent reduction

fold reduction of G9a inhibitory activity compared to 12a (human recombinant G9a [1]): approximately 50 fold
Compound: COc1cc2c(cc1OCCCN1CCCC1)N=C(c1ccccc1)CN=C2NC1CCN(C(C)C)CC1 [12b, N-(1-Isopropylpiperidin-4-yl)-7-methoxy-2-phenyl-8-(3-(pyrrolidin-1-yl)propoxy)-3H-benzo[e][1,4]diazepin-5-amine]

fold reduction of G9a inhibitory activity compared to 12a (human recombinant G9a [1]): 100 fold
Compound: COc1cc2c(cc1OCCCN1CCCC1)NC(c1ccccc1)CN=C2NC1CCN(C(C)C)CC1 (centres unmarked) [13b, N-(1-Isopropylpiperidin-4-yl)-7-methoxy-2-phenyl-8-(3-(pyrrolidin-1-yl)propoxy)-2,3-dihydro-1H-benzo[e][1,4]-diazepin-5-amine]

fold reduction of G9a inhibitory activity compared to 12a (human recombinant G9a [1]): approximately 50 fold
Compound: COc1cc2c(cc1OCCCN1CCCC1)NC(C1CCCCC1)CN=C2NC1CCN(C(C)C)CC1 (centres unmarked) [13a, 2-Cydohexyl-N-(1-isopropylpiperidin-4-yl)-7-methoxy-8-(3-(pyrrolidin-1-yl)propoxy)-2,3-dihydro-1H-benzo[e][1,4]-diazepin-5-amine]
